Measurements: patent US11001569B2, “6-membered heteroaromatic substituted cyanoindoline derivatives as NIK inhibitors” (Janssen Pharmaceutica NV, priority 2016, dated 2021)
Read-outs that look alike come from different tables or passages of the source.

How the values were obtained:
[1] = test system: JJN-3 (NIK translocated) multiple myeloma cells; assay: Antiproliferative activity on JJN-3 multiple myeloma cells (CellTiter-Glo); assay type: cell-based, human; settings: JJN-3 (NIK translocated) cells, 96 hr treatment, averaged values, read-out: JJN-3 Proliferation inhibition (IC50 (nM))
Procedure: (§1) Determination of Antiproliferative Activity on JJN-3 (NIK Translocated) and KMS12-BM (NIK WT) Multiple Myeloma Cells
(§2) All compounds tested were dissolved in DMSO and further dilutions were made in culture medium. Final DMSO concentration was 0.3% (v/v) in cell proliferation assays. Viability was assessed using CellTiter-Glo cell viability assay kit (Promega). […] Cells were routinely kept as suspension cells at 37° C. in a humidified 5% CO2 atmosphere. Cells were passaged at a seeding density of 0.2×10^6/ml twice a week. Cells were seeded in black tissue culture treated 96-well plates (Perkin Elmer). Densities used for plating ranged from 15000 (JJN3) to 20000 (KMS12BM) cells per well in a total volume of 135 μl medium. Drugs and/or solvents were added (15 μl) to a final volume of 150 μl. Following 96 hr of treatment, plates were removed from the incubator and allowed to equilibrate to room temperature for approx 10 min. 75 μl CellTiter-Glo reagent was added to each well that was then covered (Perkin Elmer Topseal) and shaken on plate shaker for 10 min. Luminescence was measured on a HTS Topcount (Perkin Elmer). […] For initial screening purposes, compounds were tested using a 9 point dilution curve (serial 1:3 dilutions). For each experiment, controls (containing no drug) and a blank incubation (containing cells read at the time of compound addition) were run in parallel. The blank value was subtracted from all control and sample values. For each sample, the mean value for cell growth (in relative light units) was expressed as a percentage of the mean value for cell growth of the control.

[2] = molecular target: recombinant human NF-kappaB-inducing Kinase (NIK/MAP3K14) (Homo sapiens, UniProt Q99558); assay: Inhibition of auto-phosphorylation of recombinant human NIK/MAP3K14 activity (AlphaScreen); assay type: biochemical; settings: 25 microM ATP, averaged over all measurements on all batches
Procedure: Pharmacological Part Biological assay A Inhibition of auto-phosphorylation of recombinant human NF-kappaB-inducing Kinase (NIK/MAP3K14) Activity (AlphaScreen®)
NIK/MAP3K14 auto-phosphorylation activity was measured using the AlphaScreen® (αscreen) format (Perkin Elmer). All compounds tested were dissolved in dimethyl sulfoxide (DMSO) and further dilutions were made in assay buffer. Final DMSO concentration was 1% (v/v) in assays. Assay buffer was 50 mM Tris pH 7.5 containing 1 mM EGTA (ethylene glycol tetraacetic acid), 1 mM DTT (dithiothreitol), 0.1 mM Na3VO4, 5 mM MgCl2, 0.01% Tween® 20. Assays were carried out in 384 well Alphaplates (Perkin Elmer). […] Incubations were initiated by addition of GST-tagged NIK/MAP3K14 enzyme, carried out for 1 h at 25° C. and terminated by addition of stop buffer containing anti-phospho-IKK Ser176/180 antibody. Protein A Acceptor and Glutathione-Donor beads were added before reading using an EnVision® Multilabel Plate Reader (Perkin Elmer). Signal obtained in the wells containing blank samples was subtracted from all other wells and IC50's were determined by fitting a sigmoidal curve to % inhibition of control versus Log10 compound concentration.

[3] = test system: KMS12-BM (NIK WT) multiple myeloma cells; assay: Antiproliferative activity on KMS12-BM multiple myeloma cells (CellTiter-Glo); assay type: cell-based, human; settings: 96 hr treatment, averaged values, read-out: KMS-12 Proliferation inhibition (IC50 (nM))
Procedure: as §1, §2

recombinant human NF-kappaB-inducing Kinase (NIK/MAP3K14), sequence (Q99558 whole entry): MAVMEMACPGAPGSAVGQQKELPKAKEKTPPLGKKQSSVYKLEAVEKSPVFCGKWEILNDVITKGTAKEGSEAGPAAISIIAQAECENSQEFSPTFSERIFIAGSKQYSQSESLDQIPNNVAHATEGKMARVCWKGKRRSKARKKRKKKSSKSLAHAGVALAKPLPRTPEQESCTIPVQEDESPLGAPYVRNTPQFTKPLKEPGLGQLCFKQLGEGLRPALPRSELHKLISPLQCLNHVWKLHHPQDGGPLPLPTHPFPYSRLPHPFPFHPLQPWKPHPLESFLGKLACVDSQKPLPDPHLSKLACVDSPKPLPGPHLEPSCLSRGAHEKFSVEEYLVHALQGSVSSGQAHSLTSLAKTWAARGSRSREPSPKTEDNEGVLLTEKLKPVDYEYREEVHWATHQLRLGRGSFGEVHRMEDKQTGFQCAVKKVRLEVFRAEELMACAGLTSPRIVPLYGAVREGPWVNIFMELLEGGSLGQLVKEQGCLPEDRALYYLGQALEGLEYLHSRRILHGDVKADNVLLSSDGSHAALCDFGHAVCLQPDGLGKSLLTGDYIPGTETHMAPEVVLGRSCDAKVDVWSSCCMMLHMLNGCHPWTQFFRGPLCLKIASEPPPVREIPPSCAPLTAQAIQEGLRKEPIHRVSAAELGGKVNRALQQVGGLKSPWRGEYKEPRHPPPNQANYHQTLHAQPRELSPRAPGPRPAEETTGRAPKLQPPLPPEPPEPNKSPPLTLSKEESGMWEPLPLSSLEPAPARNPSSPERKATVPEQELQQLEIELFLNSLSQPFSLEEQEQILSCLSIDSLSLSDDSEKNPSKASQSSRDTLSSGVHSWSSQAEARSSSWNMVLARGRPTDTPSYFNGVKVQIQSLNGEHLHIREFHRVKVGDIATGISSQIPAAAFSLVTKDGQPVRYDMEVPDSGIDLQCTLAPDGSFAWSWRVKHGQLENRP

Row | IC50 ([1]; Homo sapiens, JJN-3, 96 h) [nM] | melting point [°C] | IC50 [2] [nM] | IC50 ([3]; Homo sapiens, KMS-12-BM, 96 h) [nM] | IC50 [1] [nM] | IC50 [3] [nM] | SMILES
1 | 166 | 270 | 9.8 | 891 | – | – | CC1(C)CNc2c(C#N)cc(-c3ccnc(Nc4cnc(N5CCOCC5)nc4)n3)cc21 [Compound 125]
2 | 3160 | – | 34.7 | ~5010 | – | – | Cc1nccnc1Nc1nccc(-c2cc(C#N)c3c(c2)[C@@](C)(CO)CN3)n1 [Compound 163]
3 | 3310 | – | 12.9 | > 10000 | – | – | Cc1nc(C)c(Cl)c(Nc2nccc(-c3cc(C#N)c4c(c3)[C@@](C)(CO)CN4)n2)n1 [Compound 132]
4 | 1290 | 106 | 129 | 2000 | – | – | COc1ncc(Cl)cc1Nc1nccc(-c2cc(C#N)c3c(c2)C(C)(COCCNC2CC2)CN3)n1 (stereo not drawn) [Compound 119]
5 | 977 | 117 | 29.5 | > 10000 | – | – | COCCOc1nc(C2CC2)ccc1Nc1nccc(-c2cc(C#N)c3c(c2)[C@@](C)(CO)CN3)n1 [Compound 62]
6 | 741 | 203 | 10 | 6310 | – | – | COc1ncccc1Nc1nccc(-c2cc(C#N)c3c(c2)C(C)(CNC(C)=O)CN3)n1 (stereo not drawn) [Compound 115]
7 | > 10000 | – | 38.9 | > 10000 | – | – | Cc1nc(Nc2nccc(-c3cc(C#N)c4c(c3)[C@@](C)(CO)CN4)n2)cc(N2CCOCC2)n1 [Compound 134]
8 | 4570 | 88 | 64.6 | 4070 | – | – | COc1ncccc1Nc1nccc(-c2cc(C#N)c3c(c2)C(C)(COCCN2CCCC2)CN3)n1 (stereo not drawn) [Compound 118]
9 | 204 | > 250 | 2.2 | 2460 | – | – | COc1ncccc1Nc1ncc(F)c(-c2cc(C#N)c3c(c2)C(C)(CO)CN3)n1 (stereo not drawn) [Compound 101]
10 | 631 | 152 | 79.4 | 1230 | – | – | COc1ncc(Cl)cc1Nc1nccc(-c2cc(C#N)c3c(c2)C(C)(COCCN2CCCC2)CN3)n1 (stereo not drawn) [Compound 120]
11 | – | – | 29.5 | – | 1510 | > 10000 | Cc1ncc(Nc2nccc(-c3cc(C#N)c4c(c3)[C@@](C)(CO)CN4)n2)c(OCC2CCCO2)n1 (single isomer, unassigned) [Compound 138]
12 | – | > 260 | 7.9 | – | – | – | Cc1cnc(OCC2(C)COC2)c(Nc2nccc(-c3cc(C#N)c4c(c3)[C@@](C)(CO)CN4)n2)c1 [Compound 147]
13 | – | – | 9.5 | – | 479 | 4790 | COC[C@@]1(C)CNc2c(C#N)cc(-c3ccnc(Nc4cc(Cl)cnc4C)n3)cc21 [Compound 145]
14 | > 10000 | – | 24 | > 10000 | – | – | Cc1ncc(Nc2nccc(-c3cc(C#N)c4c(c3)[C@@](C)(CO)CN4)n2)c(OCC(=O)N(C)C)n1 [Compound 144]
15 | 468 | – | 4.6 | > 10000 | – | – | COc1ncncc1Nc1nccc(-c2cc(C#N)c3c(c2)C(C)(CO)CN3)n1 (stereo not drawn) [Compound 130]
16 | ~10000 | – | 17.8 | > 10000 | – | – | COCCOc1nc(P(C)(C)=O)ncc1Nc1nccc(-c2cc(C#N)c3c(c2)[C@@](C)(CO)CN3)n1 [Compound 139]
17 | – | – | 19.5 | – | – | – | Cc1cnc(OCC2CCCN2C2CC2)c(Nc2nccc(-c3cc(C#N)c4c(c3)[C@@](C)(CO)CN4)n2)c1 (mixture of isomers) [Compound 175]
18 | 6310 | – | 15.1 | > 10000 | – | – | Cc1ncc(Nc2nccc(-c3cc(C#N)c4c(c3)[C@@](C)(CO)CN4)n2)c(OCC2(C)COC2)n1 [Compound 142]
19 | – | – | 4.8 | – | – | – | Cc1cc(Nc2nccc(-c3cc(C#N)c4c(c3)[C@@](C)(CO)CN4)n2)c(C)nc1OC1CCN(C2CC2)CC1 [Compound 176]
20 | ~1950 | – | 22.9 | > 10000 | – | – | Cc1nc(Nc2nccc(-c3cc(C#N)c4c(c3)[C@@](C)(CO)CN4)n2)cc(N2CCN(CCO)CC2)n1 [Compound 133]
21 | 347 | – | 7.8 | > 10000 | – | – | COc1nc(C2=CCOCC2)ncc1Nc1nccc(-c2cc(C#N)c3c(c2)[C@@](C)(CO)CN3)n1 [Compound 143]
22 | ~144 | – | 3.8 | > 10000 | – | – | COc1nnc(Cl)cc1Nc1nccc(-c2cc(C#N)c3c(c2)C(C)(CO)CN3)n1 (stereo not drawn) [Compound 124]

Second part, the compound before the results:

Row | SMILES | IC50 ([1]; Homo sapiens, JJN-3, 96 h) [nM] | melting point [°C] | IC50 [2] [nM] | IC50 ([3]; Homo sapiens, KMS-12-BM, 96 h) [nM] | IC50 [1] [nM] | IC50 [3] [nM]
23 | COCCNc1ccc(Nc2nccc(-c3cc(C#N)c4c(c3)C(C)(CO)CN4)n2)c(OC)n1 (stereo not drawn) [Compound 12] | 589 | 120 | 12.9 | > 10000 | – | –
24 | COCCOc1nc(C(F)(F)F)ccc1Nc1nccc(-c2cc(C#N)c3c(c2)[C@@](C)(CO)CN3)n1 [Compound 53] | 3470 | 190 | 95.5 | > 10000 | – | –
25 | C[C@]1(CO)CNc2c(C#N)cc(-c3ccnc(Nc4cccnc4O[C@H]4CCCOC4)n3)cc21 [Compound 26] | 794 | 155 | 4.1 | > 10000 | – | –
26 | COc1ncccc1Nc1nccc(-c2cc(C#N)c3c(c2)[C@@](C)(CO)CN3)n1 [Compound 6] | ~245 | 241 | 2.4 | > 10000 | – | –
27 | CC(C)Oc1ncccc1Nc1nccc(-c2cc(C#N)c3c(c2)C(C)(CO)CN3)n1 (stereo not drawn) [Compound 18] | 776 | 140 | 9.1 | > 10000 | – | –
28 | C[C@]1(CO)CNc2c(C#N)cc(-c3ccnc(Nc4cccn(CC(O)CO)c4=O)n3)cc21 (stereo partly drawn) [Compound 31i] | ~5010 | > 250 | 3.3 | > 10000 | – | –
29 | COc1nc(C(F)(F)F)ccc1Nc1nccc(-c2cc(C#N)c3c(c2)[C@@](C)(CO)CN3)n1 [Compound 54] | 4070 | – | 39.8 | > 10000 | – | –
30 | C[C@]1(CO)CNc2c(C#N)cc(-c3ccnc(Nc4cccnc4O[C@@H]4CCCOC4)n3)cc21 [Compound 27] | 1510 | 149 | 3.6 | 7410 | – | –
31 | C[C@]1(CO)CNc2c(C#N)cc(-c3ccnc(Nc4cccnc4OCC4CC4)n3)cc21 [Compound 45] | 195 | 138 | 9.1 | > 10000 | – | –
32 | C[C@]1(CO)CNc2c(C#N)cc(-c3ccnc(Nc4cccnc4O[C@H]4CCOC4)n3)cc21 [Compound 28] | 813 | 194 | 3.2 | 3090 | – | –
33 | COc1ncc(Cl)cc1Nc1nccc(-c2cc(C#N)c3c(c2)C(C)(CO)CN3)n1 (stereo not drawn) [Compound 3] | 81 | 254 | 8.3 | > 10000 | – | –
34 | CN1CCC(Oc2ncc(Cl)cc2Nc2nccc(-c3cc(C#N)c4c(c3)C(C)(CO)CN4)n2)CC1 (stereo not drawn) [Compound 15] | 24 | – | 2.9 | > 10000 | – | –
35 | COCCn1cc(Cl)cc(Nc2nccc(-c3cc(C#N)c4c(c3)[C@@](C)(CO)CN4)n2)c1=O [Compound 14i] | 24 | – | 1.4 | > 10000 | – | –
36 | CC1(CO)CNc2c(C#N)cc(-c3ccnc(Nc4ccc(N5CCNCC5)cn4)n3)cc21 (stereo not drawn) [Compound 32] | 89 | – | 6.5 | 437 | – | –
37 | COCCOc1ncccc1Nc1nccc(-c2cc(C#N)c3c(c2)[C@@](C)(CO)CN3)n1 [Compound 33] | 298 | – | 4.2 | > 10000 | – | –
38 | C[C@]1(CO)CNc2c(C#N)cc(-c3ccnc(Nc4cc(Cl)cnc4OC4CCOCC4)n3)cc21 [Compound 22] | 417 | – | 10.2 | > 10000 | – | –
